Laboratory results taken from the supplement of paper PMC8837787.

System: Saccharomyces cerevisiae ABC16-Green Monster
Conditions: 18 h; 30 °C; YPD
Procedure: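 Growth inhibition of the drug-sensitive S. cerevisiae ABC16-Green Monster strain (16 ABC transporters deleted) in YPD at 30 °C for 18 h. […] dilution series […] in biological replicates; IC50 from OD600 (18 h minus 0 h) fitted by variable-slope nonlinear regression in GraphPad Prism. Library compounds were first screened at 150 µM, and only those with at least 70% inhibition went to dose-response; the rest are marked inactive.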

| SMILES | IC50 growth inhibition |
| --- | --- |
| CC(C)c1cc(NCc2ccccn2)n2ncc(-c3ccccc3)c2n1 | 0.45 µM |
| CCc1c(C(=O)Nc2nc(C)cs2)cnn1-c1cccc(Cl)c1 | 30.5 µM |
| CC(Oc1ccc(Cl)cc1Cl)c1nc(-c2ccc(NC(=O)c3ccco3)cc2)no1 (centres undefined) [GNF-Pf-3333] | 2.8 µM |
| Cn1ncc2c(NCc3ccc(-c4ccc(Cl)cc4)o3)ncnc21 | 61.9 µM |
| OCCN1CCN(CCCN2c3ccccc3Sc3ccc(C(F)(F)F)cc32)CC1 [Fluphenazine] | 30.1 µM |
| CNC(=O)c1cc(Oc2ccc(NC(=O)Nc3ccc(Cl)c(C(F)(F)F)c3)cc2)ccn1 [Sorafenib] | 4.27 µM |
| CCCC(CCC)C(=O)O [Valproic acid] | > 75 µM |
| CCC(C(C)O)n1ncn(-c2ccc(N3CCN(c4ccc(OCC5COC(Cn6cncn6)(c6ccc(F)cc6F)C5)cc4)CC3)cc2)c1=O (centres undefined) [Posaconazole] | 0.71 µM |
| N#CC(C#N)=NNc1cc(Cl)cc(Cl)c1 | 20.6 µM |
| Cc1nc2ccccc2nc1SC(C)C(=O)c1c[nH]c2ccccc12 (centres undefined) | 33.8 µM |
| Cc1ccc(-c2nc(CN(Cc3ccccn3)C(C)C)cs2)o1 | 12 µM |
| Br.Cc1ccnc(Nc2nc(-c3ccccn3)cs2)c1 [GNF-Pf-4739] | 4.6 µM |
| Cc1c(C(=O)Nc2ccccc2O)cnn1-c1cccc(C(F)(F)F)c1 | 23.9 µM |
| Cc1cc(C(=O)Cn2nnc3ccccc3c2=O)c(C)n1-c1ccccc1F | 20.5 µM |
| CNc1ncc2cc(-c3cc(NC(=O)NCCC(C)(C)C)c(F)cc3C)c(C)nc2n1 [DP-4978] | > 150 µM |
| N#CC(c1ccc(Cl)cc1)c1c(Cl)cc(-n2ncc(=O)[nH]c2=O)cc1Cl (centres undefined) [Diclazuril] | 68.5 µM |
| CC1=NN(c2nc3ccccc3[nH]2)C(=O)C1Cc1ccccc1 (centres undefined) [CBR110] | 3.48 µM |
| CC1C=CC=CCCC=CC=CC=CC=CC(OC2OC(C)C(O)C(N)C2O)CC2OC(O)(CC(O)C(O)CCC(O)CC(O)CC(O)CC(=O)OC(C)C(C)C1O)CC(O)C2C(=O)O (centres undefined) [Nystatin] | > 75 µM |
| CNC1CCC(c2ccc(Cl)c(Cl)c2)c2ccccc21.Cl (centres undefined) [Sertraline] | 13.4 µM |
| OC1=C2C(=Nc3ccccc3SC2c2ccco2)c2ccccc21 (centres undefined) [GNF-Pf-4283] | 11 µM |

| SMILES | IC50 growth inhibition |
| --- | --- |
| CN(C)c1cc(NC(=O)Nc2ccccc2)c2ccccc2n1 | 39.4 µM |
| Cc1ccc(Oc2ccc(NC(=O)CNc3ccccc3N3CCCC3=O)cc2)cc1 | 31.5 µM |
| Cc1cc(=O)[nH]c(-n2nc(C3CC3)cc2NC(=O)C2(c3ccc(Cl)cc3)CCCC2)n1 [CBR668] | 1.93 µM |
| CC(C)=CCC/C(C)=C\CNCCNC1C2CC3CC(C2)CC1C3 (centres undefined) | 18.2 µM |
| O=C(Nc1ccc([N+](=O)[O-])cc1Cl)c1cc(Cl)ccc1O [Niclosamide] | 1.53 µM |
| CCC(C)n1ncn(-c2ccc(N3CCN(c4ccc(OCC5COC(Cn6cncn6)(c6ccc(Cl)cc6Cl)O5)cc4)CC3)cc2)c1=O (centres undefined) [Itraconazole] | 7.53 µM |
| O=C1CCC(N2C(=O)c3ccccc3C2=O)C(=O)N1 (centres undefined) [Thalidomide] | > 75 µM |
| Cc1cc(Nc2ccc(OCc3ccccc3)cc2)nc2cc(O)ccc12 | 2.38 µM |
| CC1(C)c2nc(-c3ccc(F)cc3)c(Nc3ccc(Cl)cc3)n2CCN1C(=O)CN [GNF179] | 38 µM |
| COc1cc(NC(C)CCCN)c2ncccc2c1 (centres undefined) [Primaquine] | 107 µM |
| CCN(CC)C(=S)SSC(=S)N(CC)CC [Disulfiram] | 52.9 µM |
| Cc1cccc(-n2ncc3c(=O)[nH]c(-n4nc(C)cc4NC(=O)c4cc5ccccc5o4)nc32)c1 | 7.06 µM |
| OC(CNC1CCCCC1)Cn1c2ccc(I)cc2c2cc(I)ccc21 (centres undefined) | 3.98 µM |
| Cc1ccc(N/N=C/c2c3ccccc3cc3ccccc23)cc1Cl | 14 µM |
| COC(=O)c1ccc(C(=O)OC)c(N2C(=O)C=CC2=O)c1 | 67.7 µM |
| CCN(CC)CCCC(C)Nc1ccnc2cc(Cl)ccc12 (centres undefined) [Chloroquine] | > 75 µM |
| COc1cc(OC)cc(C(=O)NCC2Cc3cc(Cl)cc(-c4ccncc4)c3O2)c1 (centres undefined) | 14.4 µM |
| CN1CCN(c2ccccc2NC(=O)c2cccc(Oc3ccccc3)c2)CC1 | 98.9 µM |
| COc1ccc(Nc2nc(Nc3ccc(C)cc3)nc(Sc3nc4ccccc4[nH]3)n2)cc1 [CBR499] | 2.31 µM |
